The results in this text go back to ChEMBL document CHEMBL1126532, “Excitatory amino acid receptor atagonists: synthesis and pharmacology of 3-(carboxymethoxy)isoxazoles derived from AMPA” (Bioorg Med Chem Lett, 1993).

SMILES strings stand for the structures.

The target of experiment [1] is Glutamate receptor ionotropic, AMPA (Rattus norvegicus, UniProt P19490+P19491+P19492+P19493). The experiment is described as follows: Binding affinity by measuring displacement of [3H]AMPA from Ionotropic glutamate receptor AMPA in rat cortical slice preparation. On the technique in general: Displacement assays read how much labelled ligand stays bound in the presence of the test substance.

The target in experiment [2] is Glutamate receptor ionotropic, kainate. Briefly: Binding affinity by measuring displacement of [3H]KAIN from Ionotropic glutamate receptor kainate in rat cortical slice preparation.
Experiment [3] has as its target Glutamate receptor ionotropic, AMPA (Rattus norvegicus) (UniProt P19491+P19492+P19493+P19490). The experiment is described as follows: Binding affinity by measuring displacement of [3H]AMPA from Ionotropic glutamate receptor AMPA in rat cortical slice preparation at 100 uM.
The target in experiment [4] is Glutamate NMDA receptor. The experiment is described as follows: Binding affinity by measuring displacement of [3H]CPP from NMDA receptor in rat cortical slice preparation.

For the compound `NC(Cc1c(OCC(=O)O)noc1C(F)(F)F)C(=O)O` (configuration not stated), the IC50 in experiment [1], in experiment [2] and in experiment [4] was more than 100 µM each time. The inhibition (commonly the relative decrease from the control value, in per cent) in experiment [3] came out at 40%.

With `Cc1onc(OCC(=O)O)c1C(N)C(=O)O` (configuration not stated), the IC50 in experiment [1], in experiment [2] and in experiment [4] was more than 100 µM in each case.

Take `C=C(C)[C@H]1CN[C@H](C(=O)O)[C@H]1CC(=O)O` [KAINIC ACID]: the IC50 (in general, the midpoint of a concentration-inhibition curve) in experiment [4] is more than 100 µM.

For the compound `Cc1onc(OCC(=O)O)c1CC(N)C(=O)O` (configuration not stated), the values for the IC50 in experiment [1], in experiment [2] and in experiment [4] were 90 µM, more than 100 µM and more than 100 µM, respectively.

With `O=C(O)COc1noc2c1CC(C(=O)O)NC2` (configuration not stated), the IC50 in experiment [1] is more than 100 µM; in experiment [2], more than 100 µM; in experiment [4] it was 16 µM.

For `Cc1o[nH]c(=O)c1C(N)C(=O)O` (configuration not stated), the IC50 in experiment [1] is more than 100 µM; in experiment [2], more than 100 µM; in experiment [4], 4.5 µM.
